Test results taken from patent publication US5670619A, “Bradykinin-antagonists for the treatment of acute pancreatitis” (Hoechst Aktiengesellschaft, priority 1991, dated 1997).

Legend:
Format in all cases: in vivo
[1] = system: caerulein-induced pancreatic oedema; assay: Pancreatic oedema (water and Evans blue content of pancreas) in caerulein-induced pancreatitis in rats; settings: rat; for Pancreatic oedema: Evans blue / Pancreatic oedema: water: A s.c. 100 nmol/kg, mean ± SEM, n = 10
Excerpt: General methods: To induce experimental pancreatitis in animals, a number of procedures have been used including ligation of the pancreatic duct, injection of bile salts into the pancreatic duct, infusion of oleic acid, or infusion of the amphibian cholecystokinin analogue, caerulein. The latter procedure produces a hyperstimulation of the exocrine function of the pancreas and leads to morphological changes that share many features also seen in human acute pancreatitis (Willemer S., Bialek R., Kohler H. Adler G.; "Caerulein-induced acute pancreatitis in rats: changes in glycoprotein-composition of subcellular membrane systems in acinar cells;" Histochemistry 1990; 95; 87-96). Caerulein-induced pancreatitis in rats was used for the following experiments.
(§1) Method: Female Sprague-Dawley rats (260±30 g) were anaesthetized with pentobarbitone sodium (40 mg/kg, i.p.) and phenobarbitone sodium (160 mg/kg, i,p.). […] 10 min later, the animals were given a s.c. injection of a peptide of the formula I (100 nmol/kg) or of a corresponding volume (0.5 ml/kg) of a 154 mM sodium chloride solution. The systemic arterial blood pressure was monitored in a carotid artery using a Statham pressure transducer. A jugular vein was cannulated to allow the infusion of either caerulein (4 nmol/kg/h) or of physiological saline (0.034 ml/min). The infusion was started 30 min after the s.c. injection of a peptide of the formula I or saline, and lasted for 2 h. At the end of the experiment the animals were killed by decapitation; the blood was collected for the determination of serum amylase and lipase.
Method: Quantification of the pancreatic oedema was achieved by measuring the dry weight of pancreas and the accumulation of plasma proteins in pancreas. At the end of the infusions (see blood pressure experiments), the blood was collected for measuring enzymes in serum. The pancreas was excised and weighed. After drying the tissue, the difference between wet and dry weight, in relation to dry weight, was used as a measure for the water content of the tissue. 5 mg/kg of Evans blue, which quantitatively binds to serum albumin (Rawson R. A.: "The binding of T-1824 and structurally related diazo dyes by plasma proteins", Amer. J. Physiol. 1943, 138, 708-717) was injected i.v. immediately before the start of the i.v. infusion of caerulein or physiological saline. Thereafter the pancreatic tissue was used to measure Evans blue concentration photometrically (Gamse R., Holzer P., Lembeck F.: "Decrease of substance P in primary afferent neurones and impairment of neurogenic plasma extravasation by capsaicin", Br. J. Pharmacol. 1980, 68, 207-213; Saria A., Lundberg J. M.: "Evans blue fluorescence: quantitative and morphological evaluation of vascular permeability in animal tissues", J. Neurosci. Meth. 1983, 8, 41-49). Control animals were treated with corresponding volumes of saline instead of a peptide of the formula I or caerulein. Plasma extravasation was quantified as content of water and Evans blue in the pancreas.

[2] = system: caerulein-induced increase of water and Evans blue content in the pancreas; assay: Comparison of peptide A with the Berg et al. antagonist, given after onset of caerulein infusion in rats; settings: rat; given 10 minutes after the outset of the caerulein infusion; Berg antagonist in a dose 10 times higher than peptide A
Procedure: Additionally D-Arg^0 -HYP^3 -Thi^5.8 D-Phe^7 -BK disclosed by Berg et al. (see page 1) has been tested in comparision with the peptide A. Both antagonists were given in two groups of rats under identical conditions 10 minutes after the outset of the infusion of caerulein.

[3] = system: pancreatic enzymes in serum; assay: Serum amylase and lipase activities in caerulein-induced pancreatitis in rats; settings: rat, A s.c., no CRL i.v., n = 6
Procedure: as §1
Methods: Serum amylase was determined using a kinetic colour test with 2-chlor-4-nitrophenyl-D-maltoheptoside (Amylase test kit Roche, F.R.G.). Serum lipase was measured by the reduction of the turbidity due to cleavage of triolein to monoglyceride and oleic acid (Monotest Lipase, Boehringer Mannheim, F.R.G.). The detection limits for amylase and lipase were 11 U/I and 16 U/l, respectively. Control animals were treated with corresponding volumes of saline instead of a peptide of the formula I.

[4] = system: bradykinin (injected, or split off from kininogen by kallikrein); assay: Inhibition of the fall in blood pressure evoked by bradykinin and kallikrein in anaesthetized rabbits; settings: anaesthetized rabbit, peptide 3 nmol/kg i.v.
Procedure: Methods: Rabbits of either sex (3.5-5.0 kg) were anaesthetized with pentobarbitone sodium (35 mg/kg i.v.). Arterial blood pressure was monitored in a carotid artery using a Statham pressure transducer. I.v. injections of bradykinin (1 to 10 nmol/kg) or kallikrein (1 to 10 U/kg) were made into a jugular vein at intervals of 10 min. A peptide of the formula I (3 nmol/kg) was given i.v. and the injections of bradykinin or kallikrein were then repeated.

N=C(N)NCCC[C@@H](N)C(=O)N[C@@H](CCCNC(=N)N)C(=O)N1CCC[C@H]1C(=O)N1C[C@H](O)C[C@H]1C(=O)NCC(=O)N[C@@H](Cc1cccs1)C(=O)N[C@@H](CO)C(=O)N1Cc2ccccc2C[C@@H]1C(=O)N1[C@H](C(=O)N[C@@H](CCCNC(=N)N)C(=O)O)C[C@@H]2CCCC[C@@H]21 [peptide A, H-D-Arg-Arg-Pro-Hyp-Gly-Thi-Ser-D-Tic-Oic-Arg-OH]
Pancreatic oedema: Evans blue ([1]; CRL i.v.): 18.21 ± 4.24 μg/g dry wgt
Pancreatic oedema: water ([1]; CRL i.v.): 3.11 ± 0.33 g/g dry wgt
Pancreatic oedema: Evans blue ([1]; no CRL i.v.): 20.31 ± 5.80 μg/g dry wgt
Pancreatic oedema: water ([1]; no CRL i.v.): 2.62 ± 0.23 g/g dry wgt
CRL induced pancreatic oedema ([1]; result in words): completely inhibited
increase of Evans blue content in the pancreas [2]: completely inhibited
increase of water content in the pancreas [2]: completely inhibited
Serum Amylase activity ([3]; mean ± SEM): 3.19 ± 0.21 U/ml
Serum Lipase activity ([3]; nn = not detectable): nn
fall in blood pressure evoked by bradykinin ([4]; bradykinin 1 to 10 nmol/kg i.v.): completely blocked
fall in blood pressure evoked by kallikrein ([4]; kallikrein 1 to 10 U/kg i.v.): completely blocked
